Values after ≈ are worked out from the molar mass of the structure shown. Active and inactive are the calls of the source. No cut-off for these calls is given here.
Columns and labels:
[1] = tested on: Pseudococcus viburni; experiment: Insecticidal activity against Pseudococcus viburni; format: functional, organism-based
[2] = tested on: Vitis vinifera; experiment: (§1) Phytotoxicity in Vitis vinifera assessed as induction of olfactory damage after compound application for 1 hr through two-tier reduced pressure fumigation at 30 mmHg for 0.5 hr and then 760 mmHg for 1.5 hr at 23 +/- 1 degC; format: organism-based; settings: in vivo
[3] = tested on: Pseudococcus affinis; experiment: Insecticidal activity against Pseudococcus affinis; format: functional, organism-based
[4] = tested on: Lactuca sativa; experiment: Phytotoxicity in naked Lactuca sativa (lettuce) assessed as change in visual quality after compound application through two-tier reduced pressure fumigation at 30 mmHg for 0.5 hr and then 760 mmHg for 1.5 hr at 23 +/- 1 degC after 2 hr; format: organism-based; settings: in vivo
[5] = tested on: Brevicoryne brassicae; experiment: Insecticidal activity against Brevicoryne brassicae (cabbage aphids); format: functional, organism-based
[6] = tested on: Oryza sativa; experiment: Phytotoxicity in Oryza sativa (rice) assessed as induction of visual damage after compound application for 1 hr through two-tier reduced pressure fumigation at 30 mmHg for 0.5 hr and then 760 mmHg for 1.5 hr at 23 +/- 1 degC; format: organism-based; settings: in vivo
[7] = tested on: Persea americana; experiment: Phytotoxicity in Persea americana (avocado) assessed as induction of visual damage after compound application for 1 hr through two-tier reduced pressure fumigation at 30 mmHg for 0.5 hr and then 760 mmHg for 1.5 hr at 23 +/- 1 degC; format: organism-based; settings: in vivo
[8] = tested on: Malus domestica; experiment: Phytotoxicity in Malus x domestica (apple) assessed as induction of olfactory damage after compound application for 1 hr through two-tier reduced pressure fumigation at 30 mmHg for 0.5 hr and then 760 mmHg for 1.5 hr at 23 +/- 1 degC; format: organism-based; settings: in vivo
[9] = tested on: Frankliniella occidentalis; experiment: Insecticidal activity against Frankliniella occidentalis (western flower thrips); format: functional, organism-based
[10] = tested on: Myzus persicae; experiment: Insecticidal activity against Myzus persicae (green peach aphid) infested naked lettuce applied for 1 hr through two-tier reduced pressure fumigation at 30 mmHg for 0.5 hr and then 760 mmHg for 1.5 hr at 23 +/- 1 degC measured 24 hr; format: functional, organism-based
[11] = tested on: Vitis vinifera; experiment: as §1; format: organism-based; settings: in vivo; remark: listed apart in the source
[12] = tested on: Citrus limon; experiment: Phytotoxicity in Citrus limon (lemon) assessed as induction of olfactory damage after compound application for 1 hr through two-tier reduced pressure fumigation at 30 mmHg for 0.5 hr and then 760 mmHg for 1.5 hr at 23 +/- 1 degC; format: organism-based; settings: citrus x limon, in vivo
[13] = tested on: Myzus persicae; experiment: Insecticidal activity against Myzus persicae (green peach aphid) placed under third leaf of naked Iceburg lettuce heads and after compound application for 2 hr through two-tier reduced pressure fumigation at 30 mmHg for 0.5 hr and then 760 mmHg for 1.5 hr at 23 +/- 1 degC measured after 24 hr; format: functional; settings: for LC50: Myzus persicae, read-out: LD50 (the source's name)
[14] = tested on: Lactuca sativa; experiment: Phytotoxicity in naked Lactuca sativa (lettuce) assessed as residual aldehyde odor after compound application through two-tier reduced pressure fumigation at 30 mmHg for 0.5 hr and then 760 mmHg for 1.5 hr at 23 +/- 1 degC after 2 hr; format: organism-based; settings: in vivo
[15] = tested on: Lactuca sativa; experiment: Phytotoxicity in wrapped Lactuca sativa (lettuce) assessed as induction of visual damage after compound application for 1 hr through two-tier reduced pressure fumigation at 30 mmHg for 0.5 hr and then 760 mmHg for 1.5 hr at 23 +/- 1 degC; format: organism-based; settings: in vivo
[16] = tested on: Brassica oleracea var. italica; experiment: Phytotoxicity in Brassica oleracea var. italica after compound application for 1 hr through two-tier reduced pressure fumigation at 30 mmHg for 0.5 hr and then 760 mmHg for 1.5 hr at 23 +/- 1 degC; format: organism-based; settings: in vivo
[17] = tested on: Myzus persicae; experiment: Insecticidal activity against Myzus persicae (green peach aphid) infested wrapped lettuce applied for 1 hr through two-tier reduced pressure fumigation at 30 mmHg for 0.5 hr and then 760 mmHg for 1.5 hr at 23 +/- 1 degC measured 24 hr; format: functional, organism-based
[18] = tested on: Brassica oleracea var. capitata; experiment: Phytotoxicity in Brassica oleracea var. capitata (cabbage) assessed as induction of visual damage after compound application for 1 hr through two-tier reduced pressure fumigation at 30 mmHg for 0.5 hr and then 760 mmHg for 1.5 hr at 23 +/- 1 degC; format: organism-based; settings: in vivo
[19] = tested on: Phaseolus vulgaris; experiment: PhytoToxicity in Phaseolus vulgaris (beans) assessed as induction of visual damage after compound application for 1 hr through two-tier reduced pressure fumigation at 30 mmHg for 0.5 hr and then 760 mmHg for 1.5 hr at 23 +/- 1 degC; format: organism-based; settings: in vivo, other
[20] = tested on: Brassica oleracea var. italica; experiment: Phytotoxicity in Brassica oleracea var. italica assessed as induction of visual damage after compound application for 1 hr through two-tier reduced pressure fumigation at 30 mmHg for 0.5 hr and then 760 mmHg for 1.5 hr at 23 +/- 1 degC; format: organism-based; settings: in vivo
[21] = tested on: Citrus sinensis; experiment: Phytotoxicity in Citrus sinensis (orange) assessed as induction of olfactory damage after compound application for 1 hr through two-tier reduced pressure fumigation at 30 mmHg for 0.5 hr and then 760 mmHg for 1.5 hr at 23 +/- 1 degC; format: organism-based; settings: in vivo
[22] = tested on: Lactuca sativa; experiment: Phytotoxicity in naked Lactuca sativa (lettuce) assessed as induction of olfactory damage after compound application for 1 hr through two-tier reduced pressure fumigation at 30 mmHg for 0.5 hr and then 760 mmHg for 1.5 hr at 23 +/- 1 degC; format: organism-based; settings: in vivo
[23] = tested on: Bemisia; experiment: Insecticidal activity against Bemisia sp.; format: functional, organism-based
[24] = tested on: Brassica oleracea var. capitata; experiment: Phytotoxicity in Brassica oleracea var. capitata (cabbage) after compound application for 1 hr through two-tier reduced pressure fumigation at 30 mmHg for 0.5 hr and then 760 mmHg for 1.5 hr at 23 +/- 1 degC; format: organism-based; settings: in vivo
[25] = tested on: Lactuca sativa; experiment: Phytotoxicity in naked Lactuca sativa (lettuce) after compound application for 1 hr through two-tier reduced pressure fumigation at 30 mmHg for 0.5 hr and then 760 mmHg for 1.5 hr at 23 +/- 1 degC; format: organism-based; settings: in vivo
[26] = tested on: Tetranychus urticae; experiment: Insecticidal activity against Tetranychus urticae (two-spotted spider mite); format: functional, organism-based
[27] = tested on: Citrus x paradisi; experiment: Phytotoxicity in Citrus x paradisi (grape fruit) assessed as induction of visual damage after compound application for 1 hr through two-tier reduced pressure fumigation at 30 mmHg for 0.5 hr and then 760 mmHg for 1.5 hr at 23 +/- 1 degC; format: organism-based; settings: in vivo
[28] = tested on: Myzus persicae; experiment: Insecticidal activity Myzus persicae (green peach aphid) on flower bulbs; format: functional
[29] = tested on: Thysanoptera; experiment: Insecticidal activity Thysanoptera (thrips) on flower bulbs; format: functional
[30] = tested on: Frankliniella occidentalis; experiment: Insecticidal activity against Frankliniella occidentalis (western flower thrips) larva and adults; format: functional
[31] = tested on: Acari; experiment: Insecticidal activity mites on flower bulbs; format: functional

Compound	Activity [1]	Activity [3]	Activity [4]	Activity [5]	Activity [9]	LD90 [13]	LC50 [13]	Activity [14]	Activity [23]	Activity [26]	further results
CC/C=C/C=O [PENTENAL]	Active	Active	Toxic	inactive	Active	25.8 mg/L	13.1 µg/mL (≈ 156 µM)	Toxic	Active	inactive	Activity [2]: Non-toxic; Activity [6]: Toxic; Activity [7]: Toxic; Activity [8]: Non-toxic; Activity [10]: Active; Activity [11]: Non-toxic; Activity [12]: Non-toxic; CTP [13]: 106 mg/L.hr; Activity [15]: Toxic; Activity [16]: Toxic; Activity [17]: Active; Activity [18]: Toxic; Activity [19]: Toxic; Activity [20]: Toxic; Activity [21]: Non-toxic; Activity [22]: Toxic; Activity [24]: Toxic; Activity [25]: Toxic; Activity [27]: Toxic
CC/C=C(\C)C=O [2-methyl-(E)-2-pentenal]	Active	Active	Toxic	inactive	Active	85.8 mg/L	33.5 µg/mL (≈ 341 µM)	Toxic	Active	inactive	–
CC(C)=CC=O [3-METHYL-(E)-2-BUTENAL]	Active	Active	Toxic	inactive	Active	139.1 mg/L	73.9 µg/mL (≈ 879 µM)	Toxic	Active	inactive	–
CCCCC=O [PENTANAL]	Active	Active	Toxic	inactive	Active	115.7 mg/L	71.4 µg/mL (≈ 829 µM)	Toxic	Active	inactive	–
CCC/C=C/C=O	Active	Active	Toxic	inactive	Active	54.4 mg/L	24.3 µg/mL (≈ 248 µM)	Toxic	Active	inactive	–
CBr [BROMOMETHANE]	–	–	–	–	–	–	–	–	–	–	CTP [28]: 100 mg/L.hr; CTP [29]: 100 mg/L.hr; CTP [30]: 25 mg/L.hr; CTP [31]: 100 mg/L.hr

Reference: ChEMBL document CHEMBL3046689, “Volatile aldehydes are promising broad-spectrum postharvest insecticides” (J Agric Food Chem, 2000)
